# Source: PMC12373846, “Hemoglobin as a pseudoperoxidase and drug target for oxidative stress-related diseases” (Signal Transduction and Targeted Therapy, 2025)
# Experiments:
# [1] = test system: primary cultured hippocampal astrocytes; assay: oROS-G intracellular H2O2 imaging; format: cell-based, mouse; details: for oROS-G intensity: Fig. 6e
# Method: Primary hippocampal astrocytes were obtained from postnatal day 0‒2 (P0‒2) C57BL/6 mice as previously described.[73] The hippocampal tissue was dissected free of meninges, minced, and dissociated into a single-cell suspension by trituration. The cells were grown in Dulbecco’s modified Eagle’s medium supplemented with D-glucose (4500 mg/L), L-glutamine, sodium pyruvate (110 mg/L), 10% heat-inactivated horse serum, 10% heat-inactivated fetal bovine serum, and 1000 U/ml penicillin‒streptomycin. The cells were maintained at 37 °C in a humidified atmosphere containing 5% CO2.
# H2O2 specific, highly sensitive, and fast on-and-off kinetics, a genetically encoded oROS-G plasmid kindly provided by Dr. Andre Berndt. oROS-G was cloned under the GFAP104 promoter and delivered into primary cultured hippocampal astrocytes via the NeoN^TM transfection system (Invitrogen). The cells were treated with various concentrations of Aβ (1 to 10 μM) or 6-OHDA (Tocris, 2547; 10 to 50 μM) to induce aberrant H2O2. For subsequent experiments, 5 μM Aβ and 30 μM 6-OHDA were selected on the basis of initial dose‒response studies. KDS12025 (10 μM) and sodium pyruvate (1 mM) were applied as indicated in each experiment. For live-cell imaging, astrocytes were maintained in a humidified chamber at 37 °C with 5% […] during imaging to preserve physiological conditions. Changes in the fluorescence of oROS-G were recorded via an A1 Nikon confocal microscope equipped with a temperature- and humidity-controlled stage. Images were captured every 20 min for up to 40 h (20for the 6-OHDA experiments) via the NIS-Elements software (Nikon, Japan) for time-lapse imaging. The excitation and emission wavelengths for oROS-G fluorescence were set to 485 nm and 538 nm, respectively. Endpoint fluorescence measurements were also collected for KDS12025 dose-dependent experiments. To analyze the fluorescence intensity, individual regions of interest (ROIs) were manually selected for each astrocyte via NIS-Elements software (Nikon, Japan). The fluorescence intensity changes were normalized to the baseline values (ΔF/F0) to quantify the H2O2 dynamics. To determine the EC50 of KDS12025, endpoint fluorescence intensity data from oROS-G experiments were normalized to those of the Aβ+vehicle control group. The normalized data were analyzed via GraphPad Prism software to fit a four-parameter logistic curve, yielding the EC50 value for the H2O2-decomposing activity of KDS12025.
# [2] = test system: APP/PS1 mice; assay: Novel place recognition test, APP/PS1 mice; format: in vivo, mouse
# Method: For an animal model of AD, both sexes of 10- to 18-month-old APP/PS1 mice were maintained and used as previously described.[76],[77] To test the effects of novel H2O2-decomposing enhancers in the AD model, the mice were treated by i.p. injection with KDS12008 (3 mg/kg/day), KDS12017 (3 mg/kg/day), or KDS12025 (3 or 10 mg/kg/day) once per day for 1 or 2 weeks, depending on the experimental protocol. All drugs were dissolved in 200 μl of saline, and the amount of each drug was calculated on the basis of the weight (kg) of the mouse. Moreover, KDS12025 (3 mg/kg/day) was orally administered to the AD model for 2 weeks ad libitum.
# Before the novel place recognition (NPR) test, the mice were subjected to sufficient handling and were concurrently habituated to an open field test (OFT) in a square chamber (40 × 40 × 40 cm). After habituation, the mice were placed in the open field with two identical objects positioned in the first and second quadrants of the cage. The mice were allowed to explore the objects freely for 10 min and then returned to their home cages for 1 h. To test spatial recognition memory, one of the two identical objects was placed in a novel place (quadrant), and the mice were re-entered into the open field chamber for 10 min. The discrimination index (DI) was calculated as the percentage of time spent on the novel place over the total time spent on both the novel and the familiar place. Frequencies were quantified via EthoVision XT software (Noldus, Netherlands).
# The mice were deeply anesthetized with vaporized 1% isoflurane and placed into stereotaxic frames (RWD Life Science, China). Following an incision on the midline of the scalp, a hole was drilled into the skull above the hippocampus. AAV-GFAP104-GFP or AAV-GFAP104-DTR-GFP was bilaterally microinjected into the hippocampal CA1 region (AP, −2.0 mm; ML, ±1.5 mm; DV, −1.65 mm from the bregma). Diphtheria toxin (2 mg/ml) was administered for 16 days as previously described.[77] For shRNA knockdown, AAV-pSicoR-Hbβ-shRNA-mCherry or AAV-pSicoR-Sc-shRNA-mCherry was microinjected into the same coordinate system. A total of 0.8 µl of the virus was injected via a syringe pump (KD Scientific, USA). The injection procedures were implemented before 5 weeks of the experiments. For cell type-specific knockdown, AAV-pSico-Hbβ-shRNA-GFP or AAV-pSico-Sc-shRNA-GFP was combined with either AAV-CaMKII-Cre-mCherry for neuronal targeting or AAV-GFAP-Cre-mCherry for astrocyte targeting. The viruses were bilaterally injected into the hippocampus and substantia nigra via the same stereotaxic coordinates and injection procedures. All viruses used in this study were produced at the Institute for Basic Science virus facility (IBS virus facility, Korea). To investigate the effects of 0.1 mg/kg/day KDS12025, GiD mice were injected with diphtheria toxin (2 mg/ml) daily for 16 days. Concurrently, KDS12025 was administered ad libitum (0.1 mg/kg/day) during the same period.
smiles,measurement,setting,value
"CNc1ccc(NCCc2ccccc2OC)cc1.Cl [KDS12025, N^1-(2-methoxyphenethyl)-N^4-methylbenzene-1,4-diamine hydrochloride salt]",oROS-G H2O2 level,"[1]; 6-OHDA 30 μM + KDS12025, Fig. 3k",123.4±9.7
same,"oROS-G H2O2 level, 40-h imaging","[1]; Aβ 5 μM + KDS12025 10 μM, Fig. 3h",111.8±4.968
same,oROS-G intensity,"[1]; Hbβ-shRNA, Aβ 5 μM + 0.1μM",199.3
same,oROS-G intensity,"[1]; Hbβ-shRNA, Aβ 5 μM + 1μM",204.7
same,oROS-G intensity,"[1]; Hbβ-shRNA, Aβ 5 μM + 10μM",182.4
same,EC50,"[1]; Mus musculus, Astrocyte, Aβ 5 µM-treated astrocytes, oROS-G endpoint, read-out: EC50, reduction of Aβ-induced H2O2",500 nM
same,oROS-G intensity,"[1]; Sc-shRNA, Aβ 5 μM + 0.1μM",100.5±13.5
same,oROS-G intensity,"[1]; Sc-shRNA, Aβ 5 μM + 1μM",112.3±24.1
same,oROS-G intensity,"[1]; Sc-shRNA, Aβ 5 μM + 10μM",83.4±13.5
same,"oROS-G H2O2 level, 40-h imaging","[1]; putrescine 180 μM + KDS12025 10 μM, Fig. 3i",96.12±6.634
same,NPR discrimination index,"[2]; APP+KDS12025 3 mg/kg/day ad libitum, Fig. 5n","WT (0.2560±0.07604, n=6), APP (-0.0956±0.05233, n=5), APP+KDS12025 (ad libitum) (0.2057±0.04843, n=6) One-way ANOVA with Tukey's multiple comparisons test, F(2,14) = 8.997, p = 0.003 WT vs. APP, p = 0.004; WT vs. APP+KDS12025 (ad libitum), p = 0.82; APP vs. APP+KDS12025 (ad libitum), p = 0.01"
same,NPR discrimination index,"[2]; APP+ScRNA+KDS12025, Fig. 6g",0.46±0.09
same,NPR discrimination index,"[2]; APP+shHbβ+KDS12025, Fig. 6g",-0.06±0.082
same,NPR discrimination index,"[2]; APP+shHbβ::CaMKII+KDS12025, Fig. 6l",0.24±0.08
same,NPR discrimination index,"[2]; APP+shHbβ::GFAP+KDS12025, Fig. 6l",-0.04±0.059
